{"source": "PubChem BioAssay AID1259407", "about": "(Chemical Carcinogenesis Research Information System (CCRIS), 2018)", "tested_on": "CCRIS mutagenicity, Ames/micronucleus/aberration tests", "test": "CCRIS mutagenicity studies", "key": {"[1]": {"details": "Test System: AMES SALMONELLA TYPHIMURIUM, Strain/Indicator: TA1535, Metabolic Activation: NONE, Method: STANDARD PLATE"}}, "note": "Activity calls are given as the source filed them. The rule behind the calls is not given here."}
{"smiles": "CCC(CCOCn1cc[n+](C)c1/C=N/O)[N+](=O)[O-]", "note": "(stereo unspecified)", "values": [{"measurement": "mutagenic call", "setting": "Test System: AMES SALMONELLA TYPHIMURIUM, Strain/Indicator: TA97, Metabolic Activation: NONE, Method: STANDARD PLATE", "result": "inactive; negative"}, {"measurement": "mutagenic call", "setting": "Test System: AMES SALMONELLA TYPHIMURIUM, Strain/Indicator: TA97, Metabolic Activation: S-9, Method: STANDARD PLATE", "result": "inactive; negative"}, {"measurement": "mutagenic call", "setting": "Test System: AMES SALMONELLA TYPHIMURIUM, Strain/Indicator: TA98, Metabolic Activation: NONE, Method: STANDARD PLATE", "result": "inactive; negative"}, {"measurement": "mutagenic call", "setting": "Test System: AMES SALMONELLA TYPHIMURIUM, Strain/Indicator: TA98, Metabolic Activation: S-9, Method: STANDARD PLATE", "result": "inactive; negative"}, {"measurement": "mutagenic call", "setting": "Test System: AMES SALMONELLA TYPHIMURIUM, Strain/Indicator: TA100, Metabolic Activation: NONE, Method: STANDARD PLATE", "result": "inactive; negative"}, {"measurement": "mutagenic call", "setting": "Test System: AMES SALMONELLA TYPHIMURIUM, Strain/Indicator: TA100, Metabolic Activation: S-9, Method: STANDARD PLATE", "result": "inactive; negative"}, {"measurement": "mutagenic call", "setting": "Test System: AMES SALMONELLA TYPHIMURIUM, Strain/Indicator: TA104, Metabolic Activation: NONE, Method: STANDARD PLATE", "result": "inactive; negative"}, {"measurement": "mutagenic call", "setting": "Test System: AMES SALMONELLA TYPHIMURIUM, Strain/Indicator: TA104, Metabolic Activation: S-9, Method: STANDARD PLATE", "result": "inactive; negative"}, {"measurement": "mutagenic call", "setting": "[1]", "result": "inactive; negative"}, {"measurement": "mutagenic call", "setting": "Test System: AMES SALMONELLA TYPHIMURIUM, Strain/Indicator: TA1535, Metabolic Activation: S-9, Method: STANDARD PLATE", "result": "inactive; negative"}, {"measurement": "mutagenic call", "setting": "Test System: AMES SALMONELLA TYPHIMURIUM, Strain/Indicator: TA1537, Metabolic Activation: NONE, Method: STANDARD PLATE", "result": "inactive; negative"}, {"measurement": "mutagenic call", "setting": "Test System: AMES SALMONELLA TYPHIMURIUM, Strain/Indicator: TA1537, Metabolic Activation: S-9, Method: STANDARD PLATE", "result": "inactive; negative"}, {"measurement": "mutagenic call", "setting": "Test System: AMES SALMONELLA TYPHIMURIUM, Strain/Indicator: TA1538, Metabolic Activation: NONE, Method: STANDARD PLATE", "result": "inactive; negative"}, {"measurement": "mutagenic call", "setting": "Test System: AMES SALMONELLA TYPHIMURIUM, Strain/Indicator: TA1538, Metabolic Activation: S-9, Method: STANDARD PLATE", "result": "inactive; negative"}]}
{"smiles": "COc1cccc(CN(C)N=O)c1", "values": [{"measurement": "mutagenic call", "setting": "Test System: AMES SALMONELLA TYPHIMURIUM, Strain/Indicator: TA1535, Metabolic Activation: HAMSTER, LIVER, S-9, AROCLOR 1254, Method: STANDARD PLATE", "result": "active; positive"}, {"measurement": "mutagenic call", "setting": "[1]", "result": "inactive; negative"}]}
{"smiles": "CCCCCCCCCCCCCCCCCC(=O)NCCNC(=O)CCCCCCCCCCCCCCCCC", "values": [{"measurement": "mutagenic call", "setting": "Test System: AMES SALMONELLA TYPHIMURIUM, Strain/Indicator: TA98, Metabolic Activation: NONE, Method: PREINCUBATION", "result": "inactive; negative"}, {"measurement": "mutagenic call", "setting": "Test System: AMES SALMONELLA TYPHIMURIUM, Strain/Indicator: TA98, Metabolic Activation: RAT LIVER S-9, PHENOBARBITAL AND BETA-NAPHTHOFLAVONE, Method: PREINCUBATION", "result": "inactive; negative"}, {"measurement": "mutagenic call", "setting": "Test System: AMES SALMONELLA TYPHIMURIUM, Strain/Indicator: TA98, Metabolic Activation: RAT, LIVER, S-9, KC 500, Method: PREINCUBATION", "result": "inactive; negative"}, {"measurement": "mutagenic call", "setting": "Test System: AMES SALMONELLA TYPHIMURIUM, Strain/Indicator: TA100, Metabolic Activation: NONE, Method: PREINCUBATION", "result": "inactive; negative"}, {"measurement": "mutagenic call", "setting": "Test System: AMES SALMONELLA TYPHIMURIUM, Strain/Indicator: TA100, Metabolic Activation: RAT LIVER S-9, PHENOBARBITAL AND BETA-NAPHTHOFLAVONE, Method: PREINCUBATION", "result": "inactive; negative"}, {"measurement": "mutagenic call", "setting": "Test System: AMES SALMONELLA TYPHIMURIUM, Strain/Indicator: TA100, Metabolic Activation: RAT, LIVER, S-9, KC 500, Method: PREINCUBATION", "result": "inactive; negative"}, {"measurement": "mutagenic call", "setting": "Test System: AMES SALMONELLA TYPHIMURIUM, Strain/Indicator: TA1535, Metabolic Activation: NONE, Method: PREINCUBATION", "result": "inactive; negative"}, {"measurement": "mutagenic call", "setting": "Test System: AMES SALMONELLA TYPHIMURIUM, Strain/Indicator: TA1535, Metabolic Activation: RAT LIVER S-9, PHENOBARBITAL AND BETA-NAPHTHOFLAVONE, Method: PREINCUBATION", "result": "inactive; negative"}, {"measurement": "mutagenic call", "setting": "Test System: AMES SALMONELLA TYPHIMURIUM, Strain/Indicator: TA1535, Metabolic Activation: RAT, LIVER, S-9, KC 500, Method: PREINCUBATION", "result": "inactive; negative"}, {"measurement": "mutagenic call", "setting": "Test System: AMES SALMONELLA TYPHIMURIUM, Strain/Indicator: TA1537, Metabolic Activation: NONE, Method: PREINCUBATION", "result": "inactive; negative"}, {"measurement": "mutagenic call", "setting": "Test System: AMES SALMONELLA TYPHIMURIUM, Strain/Indicator: TA1537, Metabolic Activation: RAT LIVER S-9, PHENOBARBITAL AND BETA-NAPHTHOFLAVONE, Method: PREINCUBATION", "result": "inactive; negative"}, {"measurement": "mutagenic call", "setting": "Test System: AMES SALMONELLA TYPHIMURIUM, Strain/Indicator: TA1537, Metabolic Activation: RAT, LIVER, S-9, KC 500, Method: PREINCUBATION", "result": "inactive; negative"}, {"measurement": "mutagenic call", "setting": "Test System: AMES SALMONELLA TYPHIMURIUM, Strain/Indicator: TA1538, Metabolic Activation: NONE, Method: PREINCUBATION", "result": "inactive; negative"}, {"measurement": "mutagenic call", "setting": "Test System: AMES SALMONELLA TYPHIMURIUM, Strain/Indicator: TA1538, Metabolic Activation: RAT, LIVER, S-9, KC 500, Method: PREINCUBATION", "result": "inactive; negative"}, {"measurement": "mutagenic call", "setting": "Test System: E. COLI, Strain/Indicator: WP2 UVRA, Metabolic Activation: NONE, Method: PREINCUBATION", "result": "inactive; negative"}, {"measurement": "mutagenic call", "setting": "Test System: E. COLI, Strain/Indicator: WP2 UVRA, Metabolic Activation: RAT, LIVER, S-9, KC 500, Method: PREINCUBATION", "result": "inactive; negative"}, {"measurement": "mutagenic call", "setting": "Test System: E.COLI, Strain/Indicator: WP2UVRA/PKM101, Metabolic Activation: NONE, Method: PREINCUBATION", "result": "inactive; negative"}, {"measurement": "mutagenic call", "setting": "Test System: E.COLI, Strain/Indicator: WP2UVRA/PKM101, Metabolic Activation: RAT LIVER S-9, PHENOBARBITAL AND BETA-NAPHTHOFLAVONE, Method: PREINCUBATION", "result": "inactive; negative"}]}
{"smiles": "O=C(CCCN1CC=C(n2c(=O)[nH]c3ccccc32)CC1)c1ccc(F)cc1", "values": [{"measurement": "mutagenic call", "setting": "End Point: IN VITRO CHROMOSOMAL ABERRATIONS, Test System: HUMAN LYMPHOCYTES, Metabolic Activation: NONE", "result": "inactive; negative"}]}
{"smiles": "COc1cc(/C=C/c2ccccc2)oc(=O)c1", "values": [{"measurement": "mutagenic call", "setting": "Test System: Mouse lymphoma cells, Strain/Indicator: L5178Y ( tk+/tk-), Metabolic Activation: Human, Liver, S-9, Method: Suspension/plate", "result": "inactive; negative"}]}
